Experimental findings from PubChem BioAssay (NCI) are described below.

Common to all, as to test: NCI tumour cell line growth inhibition, 48 h
Assay [1] concerns 786-0 renal.
Assay [2] concerns CCRF-CEM leukemia.
Assay [3] deals with DU-145 prostate.
In assay [4] the test system is HT29 colon.
Assay [5] concerns MDA-MB-435.
Assay [6] concerns MOLT-4 leukemia.
For assay [7], the system named is OVCAR-3 ovarian.
Assay [8] deals with RXF 393 renal.
The subject of assay [9] is SNB-19 CNS.
Assay [10] has as its system TK-10 renal.

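Growth conditions: 96-well plates. Treatment: test compound, 48 hours, 5 concentrations. Analysis: linear interpolation between bracketing concentrations; unreached endpoints set to highest concentration. GI50 = concentration required for 50% inhibition of growth. Definition used: TGI = concentration required for complete inhibition of growth.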 Some results are limits rather than exact numbers.

`Cc1c(-c2c(F)cc(C(N)=O)c3[nH]c4c(c23)CC[C@H](C(C)(C)O)C4)cccc1-n1c(=O)c2cccc(F)c2n(C)c1=O`: the GI50 is 3.54 µM in [1]; 4.52 µM in [2]; 5.63 µM in assay [3]; 0.864 µM in [4]; 3.81 µM in assay [5]; 1.77 µM in [6]. Besides, the GI50 in assay [7] was 3.95 µM; in assay [8] it was 1.61 µM; in [9], 7.22 µM; in assay [10], 2.04 µM. For the same compound, the TGI in [1] was more than 100 µM; in assay [2], more than 100 µM; in assay [3], more than 100 µM; in assay [4] it was more than 100 µM; in assay [5], more than 100 µM; in assay [6], 6.58 µM. Besides, the TGI was more than 100 µM in assay [7], 5.31 µM in assay [8], more than 100 µM in [9] and 8.03 µM in [10].

With `O=[N+]([O-])c1ccc(NC(c2ccccc2)c2ccc3cccnc3c2O)cc1` (centres undefined), the GI50 in assay [1] is 0.363 µM; in assay [2], 0.246 µM; in [3], 0.483 µM; in [4] it was 0.487 µM; in assay [5], 0.422 µM; in [6] it was 0.344 µM. Moreover, the GI50 is 0.45 µM in assay [7], 0.698 µM in assay [8], 0.551 µM in assay [9] and 0.932 µM in [10]. Further, the TGI in assay [2] is 7.97 µM; in [3], more than 100 µM; in assay [4], more than 100 µM; in [5], more than 100 µM; in assay [6], more than 100 µM; in assay [7] it was more than 100 µM. For the same compound, the TGI in [8], in [9] and in assay [10] was more than 100 µM in each case.

For the compound `CCN(Cc1c(F)cccc1C(F)(F)F)c1ccc(CO)c(Cl)c1`, the GI50 was 15.9 µM in assay [1]; 15.7 µM in [2]; 15.9 µM in [3]; 2.99 µM in assay [4]; 14.2 µM in assay [5]; 16.5 µM in assay [6]. For the same compound, the GI50 was 0.261 µM in [7], 12.6 µM in assay [8], 14.9 µM in [9] and 0.0682 µM in [10]. The TGI was 30.9 µM in assay [1]; 36.1 µM in [2]; 29.8 µM in assay [3]; 17.7 µM in assay [4]; 28.3 µM in assay [5]; 37.1 µM in assay [6]. The TGI came to 4.9 µM in assay [7], 28.5 µM in assay [8], 29.1 µM in [9] and 0.322 µM in assay [10].

As for `Cc1cccc(Nc2ncc(-c3ccccc3)o2)c1`, the GI50 in assay [1], in [2], in assay [3], in assay [4], in [5] and in [6] was more than 25 µM in each case. Besides, the GI50 in assay [7], in [8], in [9] and in assay [10] was more than 25 µM throughout. The TGI in assay [1], in [2], in [3], in [4], in assay [5] and in assay [6] was more than 25 µM in each case. The TGI in [7], in assay [8], in assay [9] and in [10] was more than 25 µM in each case.

As to `CN(N=O)N1C(=O)SCC(c2ccccc2)(c2ccccc2)C1=O`, the TGI in [1] is more than 100 µM; in [2], more than 100 µM; in assay [3], more than 100 µM; in assay [4] it was more than 100 µM; in [5] it was 73.3 µM; in [6], more than 100 µM. Besides, the TGI in assay [7] is more than 100 µM; in [8], 59.2 µM; in assay [9], more than 100 µM; in assay [10], more than 100 µM.

Take `NC(=O)C1CCCN1Cc1ccc2c(c1)OCO2` (centres undefined): the TGI in [1], in assay [2], in [3], in assay [4], in assay [5] and in assay [6] was more than 100 µM in each case. Further, the TGI in assay [7], in assay [8], in assay [9] and in assay [10] was more than 100 µM in each case.

For the compound `COc1ccc2c(c1)C(=O)CC(C(N)=O)C2` (centres undefined), the TGI in assay [1], in [2], in [3], in assay [4], in [5] and in assay [6] was more than 100 µM throughout. Further, the TGI in [7], in assay [8], in assay [9] and in assay [10] was more than 100 µM each time.

`Cc1ccccc1N=C(c1ccccc1)C1C(=O)c2ccccc2C1=O`: the GI50 is 7.05 µM in assay [1]; 12.8 µM in assay [2]; 22.4 µM in assay [3]; 13.7 µM in assay [4]; 3.44 µM in assay [5]; 9.98 µM in [6]. Moreover, the GI50 in assay [7] was 1.32 µM; in assay [8] it was 7.37 µM; in [9], 20.8 µM; in assay [10], 8.43 µM. Moreover, the TGI in assay [1] is 36 µM; in assay [2], 62.3 µM; in assay [3] it was 69.6 µM; in [4], more than 100 µM; in assay [5], 14.8 µM; in assay [6] it was 35.7 µM. In addition, the TGI in assay [7] is 5.63 µM; in assay [8], more than 100 µM; in assay [9] it was more than 100 µM; in assay [10] it was 38.5 µM.

With `CC(C)Cc1cc(-c2cccn2C)c(C#N)c(=O)[nH]1`, the GI50 in assay [1] is more than 100 µM; in assay [2], 23.4 µM; in assay [3] it was more than 100 µM; in assay [4], more than 100 µM; in assay [5], more than 100 µM; in [6], 22.5 µM. The GI50 in assay [7], in [8], in [9] and in assay [10] was more than 100 µM throughout. Also, the TGI in assay [1], in assay [2], in assay [3], in assay [4], in assay [5] and in [6] was more than 100 µM throughout. Also, the TGI in assay [7], in assay [8], in assay [9] and in assay [10] was more than 100 µM each time.
